Data set [1] deals with HEK293 cells.
In data set [2] the test system is migration of hESC-derived neural crest cells (NCC). Briefly: MINC assay (migration inhibition of neural crest cells, UKN2). Particulars: 48 h, in a non-cytotoxic concentration range.
The subject of data set [3] is hESC-derived neural crest cells (NCC).
The conditions of data set [4]: for Free conc. (FCC; free plasma concentration): calculated from CC and plasma protein binding.
Data set [5] has as its system plasma proteins. The note with it: cited from earlier work.
For data set [6] the following is noted: cited from earlier work; for Clinical conc. (CC; total/maximal plasma concentration): human plasma, literature data mining, ref per-compound studies in Fig. S4; for Plasma concentration range / Plasma concentration, average: ref Laske et al. (2009).
Data set [7] deals with mESC-derived neural stem cells (mESCn).
Data set [8] deals with zebrafish embryos. Also on record: method as in Hermsen et al. (2012). The note with it: pericardial edema, malformations of head and heart; ref Hermsen et al. (2012); cited from earlier work.
The conditions of data set [9]: head of Fig. S4 entry; compiled from in vivo/in vitro studies and simulations.
The subject of data set [10] is rat fetuses. Also on record: method as in Machera 1995. Particulars: cleft palate and hydrocephaly as most common malformations; ref Machera 1995; cited from earlier work.
Data set [11] has as its system neural embryonic stem cell test (ESTn). Also on record: method as in Theunissen et al. (2012). Particulars: ref Theunissen et al. (2012); cited from earlier work.
For data set [12], the system named is dopaminergic PC12 cells. Also on record: method as in Heusinkveld et al. (2013). Particulars: ref Heusinkveld et al. (2013); cited from earlier work.
Data set [13] concerns rat whole embryo culture. Also on record: method as in Robinson et al. (2012). The note with it: 48 hours, ref Robinson et al. (2012), cited from earlier work.
For data set [14], the system named is whole embryo culture. Also on record: method as in Piersma et al. (2008). Particulars: ref Piersma et al. (2008); cited from earlier work.
In data set [15] the test system is embryonic stem cell differentiation. Also on record: method as in de Jong et al. 2009. Particulars: ref de Jong et al. 2009; cited from earlier work.
The conditions of data set [16]: cited from earlier work.
In data set [17] the test system is fetal growth. Also on record: method as in Govarts et al. (2012). Particulars: per 1 µg/l increase in cord serum PCB-153; ref Govarts et al. (2012); cited from earlier work.
Data set [18] relates to rats. The note with it: single dose, oral gavage, adult male Long-Evans rats; ref Crofton et al. (2011); cited from earlier work.
Where [19] appears, read: 50 patients with Alzheimer's disease.

Where “and” joins values, the source holds several entries; their conditions need not be identical. Identical values can stand only once. Like-named read-outs stand apart in the source and are kept apart here.

As to `C[C@]12CC[C@H](O)CC1=CC[C@@H]1[C@@H]2CC[C@]2(C)C(c3cccnc3)=CC[C@@H]12` [Abiraterone], the “Highest non-cytotoxic conc. in HEK293” value in data set [1] (human) was found to be 2.0 µM. Moreover, in [2], the “Effect on NCC migration in concentration-response study” value (from here on “Effect on NCC migration”) is reported as “concentration-dependent effect”. In addition, in data set [3] (human), the “Concentration for hit finding in NCC (highest non-cytotoxic concentration in the UKN2 test system)” value was 2000 nM. Moreover, the “Free conc. (FCC; free plasma concentration)” value in data set [4] was 7.8 nM. Further, in [5] (ref Gurav et al. (2012)), the “Bound to plasma proteins” value is reported as more than 98.8%. Moreover, the “Clinical conc. (CC; total/maximal plasma concentration)” value in data set [6] is on record as 647.3 nM. Moreover, in data set [7] (mouse), the “Highest non-cytotoxic conc. in mESCn” value was 0.97 µM.
Consider `COCCCOc1cc(C[C@@H](C[C@H](N)[C@@H](O)C[C@H](C(=O)NCC(C)(C)C(N)=O)C(C)C)C(C)C)ccc1OC` [Aliskiren], for which the “Free conc. (FCC; free plasma concentration)” value in data set [4] was 166 nM. In [5] (moderate, ref Vaidyanathan et al. 2008), the Protein binding is reported as 47-51%. For the same molecule, the “Clinical conc. (CC; total/maximal plasma concentration)” value in data set [6] is on record as 326.5 nM.
As to `CN(C)CCCN1c2ccccc2Sc2ccc(Cl)cc21` [Chlorpromazine], in data set [5] (plasma), the “Bound to plasma protein albumin” value is on record as “around 85%”.
With `CC(C1CC1)C(O)(Cn1cncn1)c1ccc(Cl)cc1` (stereo not drawn) [Cyproconazole], the “Concentration increasing teratogenic effects” value in data set [8] is 65000 nM. In data set [9], the DT concentration is 65 to 118 µM. Besides, the “Effect on NCC migration” value in data set [2] is reported as “concentration-dependent effect”. For the same molecule, the “Suggested NOEL” value in data set [10] was 20 mg/kg. Besides, the “Concentration reducing cell viability to 80%” value in data set [11] was 117600 nM. Moreover, the “Inhibitory concentration on depolarization-evoked intracellular calcium concentration” value in data set [12] is 65 µM. Further, the figures for the Malformations in data set [13] (1 mM) and in data set [13] (1.7 mM) were 50% and 100%, respectively.
With `COC1=C2C[C@@H](C)C[C@H](OC)[C@H](O)[C@@H](C)/C=C(\C)[C@H](OC(N)=O)[C@@H](OC)/C=C\C=C(/C)C(=O)NC(=CC1=O)C2=O` [Geldanamycin], the “Effect on NCC migration” value in data set [2] is recorded as “concentration-dependent effect”. Besides, the “Clinical conc. (CC; total/maximal plasma concentration)” value in data set [6] is 800 nM.
On to `Cc1ccc(NC(=O)c2ccc(CN3CCN(C)CC3)cc2)cc1Nc1nccc(-c2cccnc2)n1` [Imatinib], for which the “Effect on NCC migration” value in data set [2] is “concentration-dependent effect”. Also, the “Concentration for hit finding in NCC (highest non-cytotoxic concentration in the UKN2 test system)” value in data set [3] (human) amounted to 5000 nM.
On to `COCC(=O)O` [Methoxyacetic acid], for which the BMC5 in [14] was 1.6 mM. This molecule also displayed a DT concentration in [9] of 7500 µM. For the same molecule, the BMC50 in data set [15] is 2.4 mM. The “Estimated human blood concentration” value in data set [16] (due to permitted occupational EGME exposure, ref Welsch 2005) was “approximately 60 μM”. Also, in [16] (head of Fig. S4 entry, ref studies in Fig. S4), the Human exposure concentration was 60 µM.
For the molecule `COC(=O)c1ccc2c(c1)NC(=O)/C2=C(\Nc1ccc(N(C)C(=O)CN2CCN(C)CC2)cc1)c1ccccc1` [Nintedanib/ BIBF 1120, Nintedanib], in [4], the “Free conc. (FCC; free plasma concentration)” value was 70.8 nM. The “Clinical conc. (CC; total/maximal plasma concentration)” value in data set [6] is 74.2 nM.
`CC[C@H](C)[C@@H]1NC(=O)[C@H](Cc2ccc(O)cc2)NC(=O)[C@@H](N)CSSC[C@@H](C(=O)N2CCC[C@H]2C(=O)N[C@@H](CC(C)C)C(=O)NCC(N)=O)NC(=O)[C@H](CC(N)=O)NC(=O)[C@H](CCC(N)=O)NC1=O` [Oxytocin]: in data set [1] (48 h), the “Highest non-cytotoxic conc. in HEK293” value was more than 0.1 µM. The “Concentration for hit finding in NCC (highest non-cytotoxic concentration in the UKN2 test system)” value in data set [3] (48 h) came out at 100 nM. Moreover, in data set [4], the “Free conc. (FCC; free plasma concentration)” value is on record as 2.0 nM. The “Binding state in plasma” value in [5] (ref Fabian et al. (1969)) was “unbound”. In addition, the “Clinical conc. (CC; total/maximal plasma concentration)” value in [6] was 2.0 nM. Also, in [7] (48 h), the “Highest non-cytotoxic conc. in mESCn” value was more than 100.0 µM.
The molecule `Clc1cc(Cl)c(-c2cc(Cl)c(Cl)cc2Cl)cc1Cl` [PCB-153] showed a DT concentration in data set [9] of 0.000388 µM. Further, in data set [2], the “Effect on NCC migration” value is recorded as “concentration-dependent effect”. The “Median cord serum concentration” value in [16] (cohort of 7990 women, ref Govarts et al. (2012)) was 140 ng/l and 388 pM. The Maternal serum concentration in data set [16] (ref Covaci et al. (2002)) is 670 ± 350 pg/mL. The “Reduction of birth weight” value in data set [17] is reported as 150 g.
As to `O=C(NC[C@H]1CN(c2ccc(N3CCOCC3=O)cc2)C(=O)O1)c1ccc(Cl)s1` [Rivaroxaban], the “Free conc. (FCC; free plasma concentration)” value in data set [4] is listed as 41.4 nM. In addition, the “Unbound fraction in plasma” value in data set [5] (PBPK model study, ref Grillo et al. (2012)) is on record as 6%. In addition, the “Clinical conc. (CC; total/maximal plasma concentration)” value in data set [6] is on record as 689.6 nM.
As to `O=C(Nc1c(Cl)cncc1Cl)c1ccc(OC(F)F)c(OCC2CC2)c1` [Roflumilast], in [4], the “Free conc. (FCC; free plasma concentration)” value is 0.2 nM. The “Clinical conc. (CC; total/maximal plasma concentration)” value in data set [6] is given as 18.0 nM.
`CCCc1nn(C)c2c(=O)[nH]c(-c3cc(S(=O)(=O)N4CCN(C)CC4)ccc3OCC)nc12` [Sildenafil]: the “Free conc. (FCC; free plasma concentration)” value in data set [4] was 11.0 nM. Besides, the Plasma protein binding result in data set [5] (ref Purvis et al. (2002)) was “approximately 95%”.
Turning to `N[C@@H](CC(=O)N1CCn2c(nnc2C(F)(F)F)C1)Cc1cc(F)c(F)cc1F` [Sitagliptin], the “Free conc. (FCC; free plasma concentration)” value in data set [4] was 1200 nM. In addition, in data set [5] (ref Herman et al. (2006a)), the “Binding to plasma proteins” value is on record as 38%. The “Clinical conc. (CC; total/maximal plasma concentration)” value in [6] was 1900 nM.
A word on the Cmax: it is the highest concentration seen after dosing. On to `Nc1ccc(S(=O)(=O)Nc2ncccn2)cc1` [Sulfadiazine], for which, in data set [1] (human), the “Highest non-cytotoxic conc. in HEK293” value is 100.0 µM. In addition, the “Concentration for hit finding in NCC (highest non-cytotoxic concentration in the UKN2 test system)” value in [3] (human) turned out to be 50000 nM. For the same molecule, the “Degree of protein binding” value in data set [5] (human) is given as 50%. For the same molecule, in data set [6] (human, in vivo), the “Clinical concentration range (average Cmax)” value is on record as 50-110 and the Cmax is 200000 to 440000 nM. For the same molecule, in data set [7] (mouse), the “Highest non-cytotoxic conc. in mESCn” value is more than 50.0 µM.
Consider `CCC[C@H](NC(=O)[C@@H]1[C@H]2CCC[C@H]2CN1C(=O)[C@@H](NC(=O)[C@@H](NC(=O)c1cnccn1)C1CCCCC1)C(C)(C)C)C(=O)C(=O)NC1CC1` [Telaprevir], for which the “Free conc. (FCC; free plasma concentration)” value in data set [4] is 1600 nM. For the same molecule, in data set [6], the “Clinical conc. (CC; total/maximal plasma concentration)” value was 5100 nM.
`C/C(O)=C(\C#N)C(=O)Nc1ccc(C(F)(F)F)cc1` [Teriflunomide]: the “Free conc. (FCC; free plasma concentration)” value in data set [4] is listed as 54.0 nM. Also, the “Portion of free teriflunomide” value in data set [5] (almost constant, ref not given) is reported as 0.5%. In addition, the “Bound to plasma proteins” value in data set [5] (primarily to albumin, no unit and ref not given) is more than 99.3. The “Clinical conc. (CC; total/maximal plasma concentration)” value in data set [6] is 10800 nM.
For the molecule `CC(C)(C)C(O)C(Oc1ccc(Cl)cc1)n1cncn1` (stereo not drawn) [triadimenol], the “Dose causing transient CNS toxicity (hyperactivity, stereotyped behavior)” value in data set [18] is reported as 50 mg/kg.
Turning to Erythropoietin, in [6], the “Clinical conc. (CC; total/maximal plasma concentration)” value was 0.3 nM.
For Neuregulin, in data set [6], the “Clinical conc. (CC; total/maximal plasma concentration)” value was 6300 nM.

B1: granulocyte colony-stimulating factor (protein, UniProt P09919 31-207, looked up)
Granulocyte …: TPLGPASSLPQSFLLKCLEQVRKIQGDGAALQEKLVSECATYKLCHPEELVLLGHSLGIPWAPLSSCPSQALQLAGCLSQLHSGLFLYQGLLQALEGISPELGPTLDTLQLDVADFATTIWQQMEELGMAPALQPTQGAMPAFASAFQRRAGGVLVASHLQSFLEVSYRVLRHLAQP
Turning to B1, in data set [4] (calculated from Laske et al. (2009) data), the Clinically relevant concentration was 25 pg/mL. Moreover, in [6] (50 healthy controls), the Plasma concentration range was 5 to 80 pg/mL and the “Plasma concentration, average” value is ~ 28 pg/ml. In [6] (setting [19]), the Plasma concentration range was 10 to 40 pg/mL and the “Plasma concentration, average” value is ~ 20 pg/ml. Also, the “Clinical conc. (CC; total/maximal plasma concentration)” value in [6] is 0.0013 nM.

The record behind these values is PMC3996367, “Profiling of drugs and environmental chemicals for functional impairment of neural crest migration in a novel stem cell-based test battery” (Archives of Toxicology, 2014).
